Laboratory results from patent US12110255B2, “Additive formulation for reduction or prevention of microbially induced corrosion in concrete or cementitious material” (MICROBAN PRODUCTS COMPANY, priority 2017, dated 2024).
Converted amounts (≈) assume the structure as drawn. Where two headings read alike, the source gives them in different places.

Key:
Aspergillus niger = test: Minimum Inhibitory Concentration (MIC) test; assay type: cell-based; conditions: Table 5, Tributyl Phosphate Defoamer: No
Experimental: (§1) Testing was also conducted to determine whether the addition of the defoamer or mixing the QS and OIT together would have any effect on the microbial efficacy of these components.

Fusarium oxysporum = test: Minimum Inhibitory Concentration (MIC) test, aqueous state; assay type: cell-based; conditions: for MIC: Fusarium oxysporum
Experimental: (§2) Table 1 indicates the MIC values generated against Th. Novella, Fusarium and a combination of the two for two antifungal additives that were tested in the aqueous state.
(§3) In addition to testing the active ingredients alone, MIC tests were conducted for combinations of the QS and the antifungal actives. An OIT active material was added to this test using the QS molecule to compatibilize the mixture, making the mixture water soluble so MIC testing was possible. Table 2 summarizes the MIC data generated for these actives:
as §1

Starkeya + Fusarium = test: as above; assay type: cell-based, Starkeya novella + Fusarium oxysporum; conditions: for MIC: Fusarium, read-out: Active Ingredient Minimum Inhibitory Concentration, Starkeya + Fusarium
Experimental: as §2
as §3, with “actives: […]” for “actives:”

Starkeya novella = test: as above; assay type: cell-based; conditions: Ancylobacter novellus, active ingredient alone
Experimental: as §2
as §3, with “actives: […]” for “actives:”

[1] = Table 5, Tributyl Phosphate Defoamer: No, read-out: MIC, Fusarium oxysporum
[2] = active ingredient alone, aqueous state

Compound `CCCCCCCCn1sccc1=O` [OIT, 2-Octyl-2H-isothiazol-3-one] has an MIC (Aspergillus niger) of 6.3 µg/mL (≈ 29.5 µM) and an MIC (Fusarium oxysporum; [1]) of 6.3 µg/mL.

For `Oc1ccccc1-c1ccccc1.[Na]` [P2, Sodium OrthophenylPhenol], the MIC (Fusarium oxysporum; read-out: Active Ingredient Minimum Inhibitory Concentration, Fusarium oxysporum) was 250 µg/mL and the MIC (Starkeya + Fusarium) was 125 µg/mL.

`CCCCCCCCCCCCCCCCCC[N+](C)(C)CCC[Si](OC)(OC)OC.[Cl-]` [QS, 1-Octadecanaminium, N,N-dimethyl-N-(3-(trimethoxysilyl)propyl)-, chloride] was tested, and the MIC (Aspergillus niger) was 125 µg/mL, the MIC (Fusarium oxysporum; [1]) was 15.6 µg/mL and the MIC (Fusarium oxysporum; active ingredient alone, aqueous state, read-out: Active Ingredient Minimum Inhibitory Concentration, Fusarium oxysporum) was 15.6 µg/mL. It also gave an MIC (Starkeya + Fusarium; [2]) of 31.3 µg/mL and an MIC (Starkeya novella) of 7.8 µg/mL.

In the case of Imazalil Sulphate [IF4], the “Active Ingredient Minimum Inhibitory Concentration, Fusarium oxysporum” value (Fusarium oxysporum; [2]) is reported as 500 ppm and the “Active Ingredient Minimum Inhibitory Concentration, Starkeya + Fusarium” value (Starkeya + Fusarium; [2]) is reported as 500 ppm.
